# Reference: paper PMC2693028 (ChemMedChem, 2008)
# Several values for one entry are separate records, joined by “and”; a condition that tells them apart may be missing. Equal entries are not always repeated. Where two headings read alike, the source gives them in different places.
# Key:
# ΔANR B. anthracis [1] = experiment: microbe, parasite or virus in culture; assay type: cell-based, Bacillus anthracis
# [2] = test system: methicillin–resistant Staphylococcus aureus (ATCC strain 43300); experiment: microbe, parasite or virus in culture; assay type: cell-based
# [3] = test system: vancomycin–resistant Enterococcus (VRE) (ATCC strain 51299); experiment: microbe, parasite or virus in culture; assay type: cell-based; conditions: for MBC / MIC: Enterococcus, ATCC51299|VRE
# [4] = test system: Klebsiella pneumoniae (ATCC strain 700603); experiment: microbe, parasite or virus in culture; assay type: cell-based; conditions: for MBC / MIC: Klebsiella pneumoniae, ATCC700603
# HeLa cells [5] = experiment: cells; conditions: Homo sapiens, read-out: EC50 against HeLa cells
# [6] = test system: Staphylococcus aureus (ATCC strain 29213); experiment: microbe, parasite or virus in culture; assay type: cell-based; conditions: ATCC29213|MSSA
# [7] = test system: Pseudomonas aeruginosa (ATCC strain 27853); experiment: microbe, parasite or virus in culture; assay type: cell-based; conditions: ATCC27853
# [8] = test system: Enterococcus fecalis (ATCC strain 29212); experiment: microbe, parasite or virus in culture; assay type: cell-based; conditions: for MBC / MIC: Enterococcus, ATCC29212
# [9] = test system: Sterne strain B. anthracis; experiment: microbe, parasite or virus in culture; assay type: cell-based, Bacillus anthracis; conditions: for MBC / MIC: Bacillus anthracis
# MHS = experiment: cells; assay type: cell-based; conditions: read-out: EC50 against MHS
# [10] = test system: Escherchia coli (ATCC strain 25922); experiment: microbe, parasite or virus in culture; assay type: cell-based; conditions: for MBC / MIC: Escherichia coli, ATCC25922
# [11] = test system: Listeria monocytogenes (10403S); experiment: microbe, parasite or virus in culture; assay type: cell-based; conditions: for MBC / MIC: Listeria monocytogenes
# [12] = target: Enoyl reducase (ENR) from Bacillus anthracis (BaENR) (Bacillus anthracis, UniProt A0A6L8PBX8); experiment: biochemical; conditions: IC50
# HeLa cells [13] = conditions: human
# ΔANR B. anthracis [14] = conditions: cited from earlier work
# ENR in S. aurues = conditions: cited from earlier work
# ENR in E. coli = conditions: cited from earlier work
# PfENR = conditions: cited from earlier work
# [15] = Staphylococcus aureus, ATCC43300|MRSA
# Enoyl reducase (ENR) from Bacillus anthracis (BaENR), sequence (A0A6L8PBX8 1-256): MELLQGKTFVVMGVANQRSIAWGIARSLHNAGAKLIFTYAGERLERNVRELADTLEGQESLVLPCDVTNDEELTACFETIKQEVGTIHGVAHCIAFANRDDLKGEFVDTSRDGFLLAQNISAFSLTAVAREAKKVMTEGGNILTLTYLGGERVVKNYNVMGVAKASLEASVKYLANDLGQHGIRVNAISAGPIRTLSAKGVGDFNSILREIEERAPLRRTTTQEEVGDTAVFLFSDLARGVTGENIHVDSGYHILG
Structure (SMILES),MBC (ΔANR B. anthracis [1]; Bacillus anthracis) [µg/mL],MIC [2] [µg/mL],"MBC [2, 15] [µg/mL]","MIC [2, 15] [µg/mL]",MBC [3] [µg/mL],MIC [3] [µg/mL],MBC [4] [µg/mL],MIC [4] [µg/mL],EC50 (HeLa cells [5]) [µg/mL],MBC [6] [µg/mL],MIC [6] [µg/mL],MIC [7] [µg/mL],MBC [8] [µg/mL],MIC [8] [µg/mL],MBC [9] [µg/mL],MIC [9] [µg/mL],EC50 (MHS) [µg/mL],MBC [10] [µg/mL],MIC [10] [µg/mL],MBC [11] [µg/mL],further results
"O=[N+]([O-])c1ccc(Oc2ccc(Cl)cc2O)c(Cl)c1 [Compound 6, 5-Chloro-2-(2-chloro-4-nitrophenoxy)phenol]",3.1 ± 1.1,0.3 ± 0.3,0.4 ± 0.1,0.3,37.5 ± 12.5,5.7 ± 0.6,12.5,1.8 ± 0.4,29.3,2.9 ± 1.2,0.1 ± 0.1,> 25,31.3 ± 6.3,4.4 ± 0.8,3.9 ± 0.8,1.9 ± 0.3,9.9,12.5,0.3 ± 0.1,14.1 ± 3.9,MIC [11]: 2.8 ± 0.3 µg/mL; IC50 [12]: 290 nM and 300 nM
"CCCc1ccc(Oc2ccc([N+](=O)[O-])cc2Cl)c(O)c1 [Compound 11, 2-(2-Chloro-4-nitrophenoxy)-5-propylphenol]",3.9 ± 0.8,0.3 ± 0.3,0.5 ± 0.2,0.3,15.6 ± 3.1,5.7 ± 0.3,8.3 ± 2.1,1.8 ± 0.9,41.4,2.9 ± 1.2,0.1 ± 0.1,> 25,12.5,4.4 ± 0.5,3.9 ± 0.8,1.9,22.6,1.2 ± 0.4,0.3 ± 0.2,14.1 ± 3.9,MBC/MIC (ΔANR B. anthracis [1]): 1.8; MIC (ΔANR B. anthracis [1]): 2.2 ± 0.0 µg/mL; MIC (ΔANR B. anthracis [1]; Bacillus anthracis): 1.9 to 3.1 µg/mL; MBC/MIC [2]: 1.9; MBC/MIC [3]: 2.7; MBC/MIC [4]: 4.7; MBC/MIC [8]: 2.9; MBC/MIC [9]: 2.1; MBC/MIC [10]: 4.5; MBC/MIC [11]: 5.0; MIC [11]: 2.8 ± 0.9 µg/mL; EC50/MIC ratio (HeLa cells [13]): 15–20; IC50 [12]: 500 nM
Oc1cc(Cl)ccc1Oc1ccc(Cl)cc1Cl [Triclosan],,,,,,,,,,,,,,,,,,,,,MIC (ΔANR B. anthracis [1]; Bacillus anthracis): 3.1 µg/mL; MIC (ΔANR B. anthracis [14]): 3.1 µg/mL; IC50 (ENR in S. aurues): 70 nM; IC50 (ENR in E. coli): 7250 nM; IC50 (PfENR): 73 nM
